Square brackets hold non-standard residues; d marks the D form. Ends that are not written are not given here. Peptide text beside a SMILES is read from it. Nle = CCCC[C@H](N)C(=O)O
System: cells of rat pituitary glands
Assay: in vitro release of growth hormone from cultured rat pituitary cells, GH measured by radioimmunoassay
Assay type: cell-based
Settings: potency for GH release relative to standard hGRF(1-40)-OH = 1.0; equimolar concentrations; 3 to 4 hours incubation; range in parentheses
Method: To determine the relative effectiveness of synthetic peptides to promote the release of growth hormone, in vitro assays are carried out using synthetic hpGRF(1-40)-OH as a standard in side-by-side comparison with equimolar concentrations of the representative analogs which have been synthesized. Cultures are used which include cells of rat pituitary glands removed some three to five days previously. Such cultures are considered optimal for the secretion of growth hormone and are used for the comparative testing, in the general manner described in Vale et al. Endocrinology, 91, 562-572 (1972) and as more particularly described in Vale et al. Endocrinology, 112, 1553-1555 (1983). Incubation with the substance to be tested is carried out for 3 to 4 hours, and aliquots of the culture medium are removed and processed to measure their contents in immunoreactive GH(ir GH) by a well-characterized radioimmunoassay.

Molecule	In Vitro Potencies
CCCC[C@H](NC(=O)[C@@H](NC(=O)[C@H](CC(=O)O)NC(=O)[C@H](CCC(N)=O)NC(=O)[C@H](CC(C)C)NC(=O)[C@H](CC(C)C)NC(=O)[C@H](CCCCN)NC(=O)[C@H](CCCNC(=N)N)NC(=O)[C@H](C)NC(=O)[C@H](CO)NC(=O)[C@H](CC(C)C)NC(=O)[C@H](CCC(N)=O)NC(=O)CNC(=O)[C@H](CC(C)C)NC(=O)[C@@H](NC(=O)[C@H](CCCCN)NC(=O)[C@H](CCCNC(=N)N)NC(=O)[C@H](Cc1ccc(O)cc1)NC(=O)[C@H](CO)NC(=O)[C@H](C)NC(=O)[C@@H](NC(=O)[C@H](Cc1ccccc1)NC(=O)[C@@H](NC(=O)[C@H](C)NC(=O)[C@H](CC(=O)O)NC(=O)[C@H](C)NC(=O)[C@@H](N)Cc1ccc(O)cc1)[C@@H](C)CC)[C@@H](C)O)C(C)C)[C@@H](C)CC)C(=O)N[C@@H](CO)C(=O)N[C@@H](CCCNC(=N)N)C(N)=O [Example No. 1, [Ala^8, Nle^27]-hGRF(1-29)-NH2] (H-YADAIFTASYRKVLGQLSARKLLQDI[Nle]SR-NH2)	2.143(1.178-4.065)
CCCC[C@H](NC(=O)[C@@H](NC(=O)[C@H](CC(=O)O)NC(=O)[C@H](C)NC(=O)[C@H](CC(C)C)NC(=O)[C@H](CC(C)C)NC(=O)[C@H](CCCCN)NC(=O)[C@H](CCCNC(=N)N)NC(=O)[C@H](C)NC(=O)[C@H](CO)NC(=O)[C@H](CC(C)C)NC(=O)[C@H](CCC(N)=O)NC(=O)CNC(=O)[C@H](CC(C)C)NC(=O)[C@@H](NC(=O)[C@H](CCCCN)NC(=O)[C@H](CCCNC(=N)N)NC(=O)[C@H](Cc1ccc(O)cc1)NC(=O)[C@H](CO)NC(=O)[C@H](CC(N)=O)NC(=O)[C@@H](NC(=O)[C@H](Cc1ccccc1)NC(=O)[C@@H](NC(=O)[C@H](C)NC(=O)[C@H](CC(=O)O)NC(=O)[C@H](C)NC(=O)[C@@H](N)Cc1ccc(O)cc1)[C@@H](C)CC)[C@@H](C)O)C(C)C)[C@@H](C)CC)C(=O)N[C@@H](CO)C(=O)N[C@@H](CCCNC(=N)N)C(N)=O [Example No. 3, [Ala^24, Nle^27]-hGRF(1-29)-NH2] (H-YADAIFTNSYRKVLGQLSARKLLADI[Nle]SR-NH2)	1.345(0.595-2.068)
CCCC[C@H](NC(=O)[C@@H](NC(=O)[C@H](C)NC(=O)[C@H](CCC(N)=O)NC(=O)[C@H](CC(C)C)NC(=O)[C@H](CC(C)C)NC(=O)[C@H](CCCCN)NC(=O)[C@H](CCCNC(=N)N)NC(=O)[C@H](C)NC(=O)[C@H](CO)NC(=O)[C@H](CC(C)C)NC(=O)[C@H](CCC(N)=O)NC(=O)CNC(=O)[C@H](CC(C)C)NC(=O)[C@@H](NC(=O)[C@H](CCCCN)NC(=O)[C@H](CCCNC(=N)N)NC(=O)[C@H](Cc1ccc(O)cc1)NC(=O)[C@H](CO)NC(=O)[C@H](CC(N)=O)NC(=O)[C@@H](NC(=O)[C@H](Cc1ccccc1)NC(=O)[C@@H](NC(=O)[C@H](C)NC(=O)[C@H](CC(=O)O)NC(=O)[C@H](C)NC(=O)[C@@H](N)Cc1ccc(O)cc1)[C@@H](C)CC)[C@@H](C)O)C(C)C)[C@@H](C)CC)C(=O)N[C@@H](CO)C(=O)N[C@@H](CCCNC(=N)N)C(N)=O [Example No. 4, [Ala^25, Nle^27]-hGRF(1-29)-NH2] (H-YADAIFTNSYRKVLGQLSARKLLQAI[Nle]SR-NH2)	1.34(0.837-2.190)
CC[C@H](C)[C@H](NC(=O)[C@H](C)NC(=O)[C@H](CC(=O)O)NC(=O)[C@H](C)NC(=O)[C@@H](N)Cc1ccc(O)cc1)C(=O)N[C@@H](Cc1ccccc1)C(=O)N[C@H](C(=O)N[C@@H](CC(N)=O)C(=O)N[C@@H](CO)C(=O)N[C@@H](Cc1ccc(O)cc1)C(=O)N[C@@H](CCCNC(=N)N)C(=O)N[C@@H](CCCCN)C(=O)N[C@H](C(=O)N[C@@H](CC(C)C)C(=O)NCC(=O)N[C@@H](CCC(N)=O)C(=O)N[C@@H](CC(C)C)C(=O)N[C@@H](CO)C(=O)N[C@@H](C)C(=O)N[C@@H](CCCNC(=N)N)C(=O)N[C@@H](CCCCN)C(=O)N[C@@H](CC(C)C)C(=O)N[C@@H](CC(C)C)C(=O)N[C@@H](CCC(N)=O)C(=O)N[C@@H](CC(=O)O)C(=O)N[C@H](C(=O)N[C@@H](CCSC)C(=O)N[C@@H](CO)C(=O)N[C@@H](CCCNC(=N)N)C(=O)N[C@@H](CCC(N)=O)C(=O)N[C@@H](CCC(N)=O)C(=O)NCC(=O)N[C@@H](CCC(=O)O)C(=O)N[C@@H](CO)C(=O)N[C@@H](CC(N)=O)C(=O)N[C@@H](CCC(N)=O)C(=O)N[C@@H](CCC(=O)O)C(=O)N[C@@H](CCCNC(=N)N)C(=O)NCC(=O)N[C@@H](C)C(=O)O)[C@@H](C)CC)C(C)C)[C@@H](C)O [hGRF(1-40)-OH, reference compound]	1.0
[Ala^16, Nle^27 ]-hGRF(1-29)-NH2 (YADAIFTNSYRKVLGALSARKLLQDI[Nle]SR-NH2; N-terminus assumed; SMILES CCCC[C@H](NC(=O)[C@@H](NC(=O)[C@H](CC(=O)O)NC(=O)[C@H](CCC(N)=O)NC(=O)[C@H](CC(C)C)NC(=O)[C@H](CC(C)C)NC(=O)[C@H](CCCCN)NC(=O)[C@H](CCCNC(=N)N)NC(=O)[C@H](C)NC(=O)[C@H](CO)NC(=O)[C@H](CC(C)C)NC(=O)[C@H](C)NC(=O)CNC(=O)[C@H](CC(C)C)NC(=O)[C@@H](NC(=O)[C@H](CCCCN)NC(=O)[C@H](CCCNC(=N)N)NC(=O)[C@H](Cc1ccc(O)cc1)NC(=O)[C@H](CO)NC(=O)[C@H](CC(N)=O)NC(=O)[C@@H](NC(=O)[C@H](Cc1ccccc1)NC(=O)[C@@H](NC(=O)[C@H](C)NC(=O)[C@H](CC(=O)O)NC(=O)[C@H](C)NC(=O)[C@@H](N)Cc1ccc(O)cc1)[C@@H](C)CC)[C@@H](C)O)C(C)C)[C@@H](C)CC)C(=O)N[C@@H](CO)C(=O)N[C@@H](CCCNC(=N)N)C(N)=O) [Example No. 2]	1.502(0.727-2.859)

Source: patent publication US5262519A, “GRF analogs XI” (The Salk Institute for Biological Studies, priority 1991, dated 1993)
